Among the data in a melting point compilation (Tetko et al.; mined from patent text by program, amines drawn as free bases though some values may be those of a salt) are melting point values, retold here.

For the molecule `COC(=O)C1C(=O)NC(C)C1c1c(Cl)cccc1Cl` (stereo not drawn), the melting point (usually the temperature of the solid-liquid transition) lay within 157 to 158 °C.
As for `O=C(N1CCOCC1)N1CCN(CCNc2ncc3ncnc(Nc4ccc(F)c(Cl)c4)c3n2)CC1`, the figure is 163 to 168 °C; as for `O=S1(=O)NC(C2CC2)Nc2ccc(S(=O)(=O)N3CCCCC3)cc21` (stereo not drawn), 228 to 231 °C.
`O=c1ccc2ccc(OCCCCl)cc2o1` displayed a melting point of 100 to 102 °C.
The same measure for `CC(O)(CC(=O)O)c1ccc(-c2ccc(Cl)c(Cl)c2)cc1` (stereo not drawn): 124 to 126 °C; for `Cn1c(C(F)(F)F)cc(=O)n(-c2ccc(Cl)c3nc(N4CCCCC4)sc23)c1=O`: 102 to 104 °C; for `O=c1ccc2cc(-c3ccccc3)ccc2n1O`: 219 to 220 °C.
As for `COc1cc2c(cc1OC)-c1c(C(=O)c3ccccc3)c(-c3cc(C)c(O)c(C)c3)c(C)n1CC2`, the figure is 194 to 196 °C.
With `OC(CCCc1ccc(Cl)cc1)Cn1ccnc1` (stereo not drawn), the melting point fell in the range of 84 to 85 °C.
As for `Cn1cc(C2=C(c3c4n(c5ccccc35)CCCC(CNC(N)=N[N+](=O)[O-])C4)C(=O)NC2=O)c2ccccc21` (stereo not drawn), the figure is 177 to 178 °C; as for `NC(=O)c1ncn2c1[C@@H]1CCN1C(=O)c1sccc1-2`, above 250 °C; as for `CCN(c1ccc(C)c2cc(-c3ncc(CO)s3)[nH]c12)S(=O)(=O)c1cccs1`, 166 to 167 °C.
As for `Nc1ncc(-c2noc(-c3cnn4c(C(F)(F)F)cc(-c5ccc(C(F)(F)F)c(F)c5)nc34)n2)cn1`, the figure is 270 °C; as for `CCC=C1Cc2c3c(c(C)c(C)c2C1=O)OC(C(=O)O)C3` (stereo not drawn), 229 °C; as for `CC(C(=O)O)c1ccc2cc(OCC=Cc3ccccc3)ccc2c1` (stereo not drawn), 175 to 177 °C.
As for `O=C(c1ccc(F)cc1C(F)(F)F)N1Cc2cccnc2Nc2ccccc21`, the figure is 183 to 185 °C; as for `CCCCCCC(Oc1ccc(C2=CCCCCC2)cc1)C(=O)O` (stereo not drawn), 59 to 60 °C.
For `CCN(CC)c1ccc(-c2cc(-c3ccc(C(=O)O)cc3)ccc2CCCO)cc1C(C)(C)C`, the melting point turned out to be 95 °C.
The same measure for `COC(=O)C(NCc1ccccc1)c1c[nH]c2ccccc12` (stereo not drawn): 91.5 to 93 °C; for `CCc1nc2c(cnn2CC)c(NC2CCOCC2)c1CNC(=O)c1cccc(C(=O)NCc2ccc(OC)c(-c3cccc(CN4CCNC(C)C4)c3)c2)c1` (stereo not drawn): 110 to 112 °C.
As for `CCOC(=O)C1=C(C)NC(N)=C(C(=O)OC(C)C)C1c1ccccc1C(F)(F)F` (stereo not drawn), the figure is 106 °C.
As for `CC1(C)OC[C@H]([C@@H](CS(=O)(=O)c2ccc(Oc3ccc(Cl)cc3)cc2)N(O)C=O)O1`, the figure is 157 to 158 °C; as for `O=c1[nH]c2ccccc2c(=O)cc1Nc1ccccc1`, 227 to 228 °C.
In turn, `CC(C)(C)c1cc(CN2CC(N(O)C(N)=O)C2)cc(C(C)(C)C)c1O` gave a melting point of 90 to 95 °C.
As for `COc1ccc(-c2coc(C#N)cc2=O)cc1`, the figure is 165 to 167 °C; as for `Clc1ccc(Nc2ncc(CCc3cccnc3)c3ccccc23)cc1`, 157 to 158 °C.
`CC(C)Cc1ccc(CCCCc2cc3c(s2)NC(=S)CN=C3c2ccccc2Cl)cc1`: the melting point fell in the range of 133 to 135 °C.
The same measure for `O=[N+]([O-])c1cc2c(cc1[N+](=O)[O-])OC(CC(F)(F)F)(C(F)(F)F)O2`: 101 to 103 °C; for `NC(=O)N(O)CC#Cc1cccc(C2=N[C@H](c3ccccc3)CS2)c1`: 155 to 157 °C.
The same measure for `CS(=O)(=O)N(C(=O)OCc1ccccc1)c1cc(OC[C@@H]2CO2)ccc1OCc1ccccc1`: 78 to 80 °C; for `O=Cc1ccc(N2CCN(c3ccncc3)CC2)cc1`: 116 to 118 °C; for `Cc1oc(-c2ccc(C(F)(F)F)cc2)cc1CC(=O)O`: 123 to 125 °C.
As for `Nc1cccc(C23CC2C(=O)NC3=O)c1` (stereo not drawn), the melting point was 135 to 137 °C.
The same measure for `c1coc(-c2nc3nsnc3nc2-c2ccncn2)c1`: 233 to 235 °C.
The same measure for `O=c1c2c(oc3ccccc13)C=C2`: 68 to 70 °C; for `CCc1nn2ccc3c(c2c1C(C)=O)CCO3`: 164 to 165 °C; for `NC(=O)c1cccc(C(N)=O)c1N`: 284 to 288 °C.
The same measure for `Cc1oc2c(-c3ccc(F)cc3)c(-c3ccc(S(C)(=O)=O)cc3)nn2c1-c1ccc(Cl)s1`: 222 to 223 °C; for `CCOc1ccc(-c2ncc(C#N)c(Cl)n2)cc1`: 191 to 192 °C; for `CCCCCCC(=O)c1ccc(O)cc1`: 93 °C.
With `Cc1[nH]c(C(=O)Nc2ccc(C#N)cc2)c(C)c1-c1nc2ccc(C(=O)c3ccccc3)cc2[nH]1`, the melting point was 252 to 254 °C.
As for `Nc1cc([N+](=O)[O-])c(Cl)cc1F`, the figure is 82 to 83.5 °C.
The same measure for `CC(C)(C)OC(=O)N1CC[C@@H](NC(=O)c2ccc(-n3cc4ccccc4n3)cc2)C1`: 211 to 212 °C; for `OC(CNCC(O)C1CCc2ccccc2O1)C1CCc2ccccc2O1` (stereo not drawn): 131 °C.
`Cn1cc(-c2cc3nccnc3[nH]2)c2ccccc21` came in with a melting point of 264 to 266 °C.
As for `CC(=O)Nc1cc(-n2c(-c3ccccc3)cc3c2CCCC3)cc(C(=O)O)c1O`, the figure is 232 to 234 °C; as for `CC1(C)SC2C(NC(c3ccccc3)(c3ccccc3)c3ccccc3)C(=O)N2C1c1nnn[nH]1` (stereo not drawn), 133 to 136 °C; as for `CCC(CC(=O)NC(=O)OC(C)(C)C)Nc1ccc(C)cc1` (stereo not drawn), 96 to 97 °C.
As for `O=C1Nc2cc(NC(=O)c3cccn(-c4ccccc4)c3=O)ccc2/C1=C/c1ccc[nH]1`, the figure is above 300 °C.
As for `CC(C)(C)OC(=O)N1CCC(Oc2ccc(C(=O)Cc3ccccn3)cc2)CC1`, the figure is 138 to 140 °C; as for `O=C(NCCN1CCOCC1)Oc1cccc(C2CCCN2Cc2ccccc2)c1` (stereo not drawn), 74 to 77 °C.
In turn, `O=C(O)CCC(=O)c1ccc(-c2ccc(Cl)cc2)o1` gave a melting point of 142 to 144 °C.
The same measure for `CC(Cc1c[nH]c2ccccc12)(NC(=O)OC1C2CC3CC(C2)CC1C3)C(=O)NC(CN=[N+]=[N-])Cc1ccccc1` (stereo not drawn): 77 to 78 °C; for `Cc1cc(C)c(NC(=O)OC(C)(C)C)c(C)c1`: 73 to 73.5 °C; for `O=C(O)C1CCc2ccc(O)cc2C1` (stereo not drawn): 170 to 171 °C.
In turn, `CSC1=Nc2ccccc2C(c2ccccc2)=NC1` yielded a melting point of 167 to 168 °C.
The same measure for `CC(C)C(=CC(N)C(=O)O)CP(=O)(O)O` (stereo not drawn): 201 °C; for `C=CS(=O)(=O)C(C(=O)NC)S(=O)(=O)C=C`: 143 to 147 °C; for `CCOC(=O)c1c(C)cc2[nH]c(=O)n(-c3ccccc3C(F)(F)F)c(=O)c2c1C`: 175 to 176 °C.
The same measure for `CCc1cc(OCc2ccc3oc(-c4ccccc4C(=O)O)nc3c2)c2c(n1)CCCC2`: 229 to 231 °C.
As for `Cc1c2n(c3ccc(Br)cc13)CCC(Br)C2=O` (stereo not drawn), the figure is 156 °C; as for `O=c1c(CCCc2cccnn2)cc2cccnc2n1-c1cccc([N+](=O)[O-])c1`, 234 to 235 °C.
`Cn1c(=O)c2c(ncn2CCCC#N)n(C)c1=O` gave a melting point of 146 to 150 °C.
`COc1ccc2nc3ccc(C(=O)OCOC(=O)C(C)(C)C)cn3c(=O)c2c1` came in with a melting point of 129 to 131 °C.
In turn, `CC(=O)Nc1c(C(=O)c2ccc(C)cc2)[nH]c2cc(Cl)ccc12` had a melting point of 140 to 143 °C.
The same measure for `CNS(=O)(=O)c1cn(C)c2cc(F)ccc2c1=O`: 255 to 257 °C; for `CCc1ccc(C2CCCN2S(=O)(=O)c2ccc(F)cc2)cc1` (racemic): 93 °C.
As for `O=C(O)Cc1cc([N+](=O)[O-])ccc1C(=O)O`, the figure is 180 to 182 °C.
Molecule `CNc1nc(Nc2ccc(Cl)c(Cl)c2)ncc1N1CCNC1=O` displayed a melting point of 271 °C.
The same measure for `NS(=O)(=O)c1cc2c(s1)CCC(O)C2` (stereo not drawn): 176 to 179 °C; for `CC(C)N1CCc2ccc(C(=O)CCC(=O)N3CCC(c4ccc(Cl)cc4)CC3)cc2C1`: 113 to 115 °C.
In turn, `O=C1NC(=O)C(=Cc2ccc(OC[C@@H]3CCCN3c3ccccn3)cc2)S1` came in with a melting point of 164 °C.
The same measure for `OC(=S)c1ccccc1-c1ccccc1`: 178 to 180 °C; for `CNC(=S)NS(=O)(=O)c1cc2c(cc1OC)OCC(NC(=O)c1cc(F)ccc1OC)C2` (stereo not drawn): 221 to 222 °C.
The molecule `COc1ccc2c(c1)N(c1cccc(Cl)c1)C(=O)C2(C)NC(=O)OCc1ccccc1` (stereo not drawn) came in with a melting point of 143 to 144 °C.
Molecule `COc1nc(F)cc2nc(SCc3ccccc3)nn12` registered a melting point of 121 to 122 °C.
The same measure for `CC(C)Oc1cccc(CC(=O)N2CCCC(CCN3CCC(C(=O)c4nc5ccccc5n4Cc4ccc(F)cc4)CC3)(c3ccc(Cl)c(Cl)c3)C2)c1` (stereo not drawn): 70 to 73 °C; for `CN1CCN(c2ccc(C3(C)C(=O)Nc4ccc(Cl)cc43)c(Cl)c2)CC1` (stereo not drawn): 155 °C; for `O=C1Cc2cnccc2N1`: above 250 °C.
The same measure for `O=c1oc2ccc(Cl)cc2c(Cl)c1Cl`: 133 to 135 °C; for `CNCc1nc(-c2ncn3c2CN(C)C(=O)c2c(Cl)cccc2-3)no1`: 192 to 193 °C; for `C[C@H](C(=O)c1ccccc1F)n1ccn(-c2ccc(OCC(F)(F)C(F)F)cc2)c1=O`: 71 to 73 °C.
As for `CS(=O)(=O)c1ccc(-n2cc(-c3ccc(Cl)cc3)nc2-c2ccc(Cl)cc2)cc1`, the figure is 169 to 171 °C.
`Cc1nn(-c2c(Cl)cc(C(F)(F)F)cc2Cl)nc1Cl` returned a melting point of 100 to 115 °C.
In turn, `O=C1Nc2ccccc2SC1=Cc1ccc(Cl)cc1` yielded a melting point of 238 to 240 °C.
As for `COc1cc(OCCOc2ccc3ccccc3c2)cc(OC)c1C(C)=O`, the figure is 97 to 98 °C; as for `O=C(O)c1ccc(-c2cccc3cc(Cc4cccc(C(F)(F)F)c4)sc23)cc1`, 200 to 201 °C.
`CSc1ccc(C2=C(c3ccc(Cl)cc3)CCC2)cc1` registered a melting point of 72 to 74 °C.
